Test results published in patent EP0713875B1, “Sulfonamides” (F. Hoffmann-La Roche AG, priority 1994, dated 1996).
pEC50, pIC50: −log10 of the molar value.

Experiments:
[1] = tested on: isolierten Aortenringen der Ratte; assay: Inhibition of endothelin-induced contractions in isolated rat aortic rings; assay type: cell-based, Wistar-Kyoto-Ratten; settings: for Kb: Rattus norvegicus, 10 min, endothelium-denuded thoracic aorta rings, 10 min incubation with test compound, cumulative doses of Endothelin-1, text calls the values pA2 = log(DR-1)-log(antagonist concentration), read-out: Dosisverhältnis (Rechtsverschiebung) (converted)
Procedure: II. Hemmung Endothelin-induzierter Kontraktionen an isolierten Aortenringen der Ratte
Aus der Thoraxaorta von erwachsenen Wistar-Kyoto-Ratten wurden Ringe von 5 mm Länge herausgeschnitten. Das Endothel wurde durch leichtes Reiben der Innenfläche entfernt. Jeder Ring wurde bei 37°C in 10 ml Krebs-Henseleit-Lösung unter Begasung mit 95% O2 und 5% CO2 in ein isoliertes Bad eingetaucht. Die isometrische Spannung der Ringe wurde gemessen. Die Ringe wurden auf eine Vorspannung von 3 g gedehnt. Nach 10 Minuten Inkubation mit der Testverbindung oder Vehikel wurden kumulative Dosen von Endothelin-1 zugegeben. Die Aktivität der Testverbindung wurde ermittelt durch die zu beobachtende Rechtsverschiebung der Dosis-Wirkungskurve von Endothelin-1 in gegenwart verschiedener Konzentrationen an Antagonist. Diese Rechtsverschiebung (oder auch "dose ratio", DR) entspricht dabei dem Quotienten aus den EC50-Werten von Endothelin-1 in Gegenwart und in Abwesenheit von Antagonist, wobei der EC50-Wert die für eine halbmaximale Kontraktion erforderliche Endothelin-Konzentration bezeichnet.
Aus der "dose ratio" DR wurde mittels eines Computerprogramms für jede einzelne Dosis-Wirkungskurve der entsprechende PA2-Wert nach untenstehender Gleichung berechnet, welcher ein Mass für die Aktivität der Testverbindung darstellt. pA2 = log(DR-1)-log(Antagonist-Konzentration) [formula]
Die EC50 von Endothelin in Abwesenheit von Testverbindungen ist 0,3 nM.
Die mit Verbindungen der Formel I so erhaltenen Werte für pA2 sind in Tabelle 2 angegeben. Tabelle 2

[2] = molecular target: T1, humanen ETA-Rezeptor (Homo sapiens, UniProt P25101); assay: Inhibition of endothelin binding at the recombinant ETA receptor (125I-endothelin, membranes of baculovirus-infected insect cells); settings: concentration required to inhibit 50% of the specific binding of 125I-Endothelin; incubation 2 h at 20°C or 24 h at 4°C
T1 construct: made in house; host or cells: insect cells (baculovirus expression system); membrane preparation
T1 sequence (P25101 21-427): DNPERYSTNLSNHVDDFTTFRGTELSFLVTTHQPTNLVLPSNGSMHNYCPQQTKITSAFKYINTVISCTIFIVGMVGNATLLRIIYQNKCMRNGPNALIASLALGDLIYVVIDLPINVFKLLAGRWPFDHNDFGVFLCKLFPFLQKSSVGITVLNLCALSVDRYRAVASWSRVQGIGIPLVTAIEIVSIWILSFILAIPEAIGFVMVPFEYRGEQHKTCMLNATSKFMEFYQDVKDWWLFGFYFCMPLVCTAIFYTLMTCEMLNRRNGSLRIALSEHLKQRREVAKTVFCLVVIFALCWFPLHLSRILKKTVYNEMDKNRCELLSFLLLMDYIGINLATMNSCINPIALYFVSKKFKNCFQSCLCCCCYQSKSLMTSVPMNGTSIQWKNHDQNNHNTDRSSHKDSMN
Procedure: I: Hemmung der Endothelin-Bindung am recombinanten ETA-Rezeptor
Baculovirus-infizierte Insektenzellen aus einem 23 l Fermenter werden 60 Stunden nach der Infektion abzentrifugiert (3 000 x g, 15 Minuten, 4°C), in Tris-Puffer (5 mM, pH 7.4, 1 mM MgCl2) resuspendiert und erneut zentrifugiert. Nach erneuter Resuspension und Zentrifugation werden die Zellen in 800 ml des gleichen Puffers suspendiert und bei -120°C eingefroren. Der Aufbruch der Zellen erfolgt beim Auftauen der Suspension in diesem hypotonen Puffergemisch. Nach wiederholtem Gefrier/Auftau-Zyklus wird die Suspension homogenisiert und zentrifugiert (25 000 x g, 15 Minuten, 4°C). Nach Suspension in Tris-Puffer (75 mM, pH 7.4, 25mM MgCl2, 250 mM Saccharose) werden 1 ml Aliquots (Proteingehalt ca. 3.5 mg/ml) bei -85°C aufbewahrt.
Für den Bindungs-Assay werden die eingefrorenen Membranpräparate aufgetaut und nach 10 Minuten Zentrifugieren mit 25000 g bei 20°C in Assay-Puffer (50 mM Tris-Puffer pH 7.4, enthaltend 25 mM MnCl2, 1 mM EDTA und 0,5% Rinderserumalbumin) resuspendiert. […] Die Inkubation wird 2 Stunden bei 20°C oder 24 Stunden bei 4°C durchgeführt. Die Trennung von freiem und Membran-gebundenen Radioliganden wird durch Filtration über Glasfaserfilter vorgenommen.

Compound	pEC50 ([1]; endothelin concentration required for half-maximal contraction, without antagonist, read-out: EC50 von Endothelin in Abwesenheit von Testverbindungen)	Kb [1]	pIC50 [2]
Endothelin [reference compound]	9.52	–	–
COc1ccccc1Oc1c(NS(=O)(=O)c2ccc(C(C)C)cn2)nc(N2CCOCC2)nc1OCCOC(=O)Nc1ccccn1 [Beispiel 51, Pyridin-2-ylcarbaminsäure 2-[6-(5-isopropylpyridin-2-ylsulfonylamino)-5-(2-methoxy-phenoxy)-2-morpholin-4-yl-pyrimidin-4-yloxy]ethylester]	–	0.631 nM	9.40
COc1ccccc1Oc1c(NS(=O)(=O)c2ccc(C)cn2)nc(N2CCOCC2)nc1OCCOC(=O)Nc1ccccn1 [Beispiel 34, Pyridin-2-yl-carbaminsäure 2-[5-(2-methoxy-phenoxy)-6-(5-methyl-pyridin-2-ylsulfonylamino)-2-morpholin-4-yl-pyrimidin-4-yloxy]-ethylester]	–	0.2 nM	9.52
